Laboratory results reported in US9963452B2, “Methods, compounds, and compositions for inhibition of ROS” (AUGUSTA PHARMACEUTICALS INC., priority 2013, dated 2018).

Assays:
[1] = system: U138 glioblastoma cell line; test: In-vitro cell survival assay (Alamar blue), U138; format: cell-based; conditions: 24 h; U138, one day after compound addition
Protocol: (§1) Five tumor-derived cell lines were treated with the ROS inhibitor compounds and cell survival was monitored to determine the cancer prohibition effects of the compounds. The cell lines included HeLa, a cervical cancer cell line, and four glioblastoma cell lines U138, U87, LN18, and U118. The basic protocol for the in-vitro cell survival assay is the same for all five cell lines. In particular, the cells were seeded in 96-well plates at 2-5×10^3 cells/well (cell line dependent) in culture medium. The cells were grown for 2 days before the compounds were dissolved in DMSO and added to final concentrations of 100 uM, 10 uM, or 1 uM (DMSO final concentration 0.5%). The cell culture was then assayed one day after the addition of the compounds. The assay used Alamar blue as a redox-sensitive dye that interrogates mitochondrial fitness of cells, and these assays provided a readout for cell proliferation and viability. The raw values were normalized to an average of several vehicle control wells and are presented as percent decrease in proliferation/viability, which is converted to half maximal effective concentration (EC50) values.

[2] = system: HeLa cervical cancer cell line; test: In-vitro cell survival assay (Alamar blue), HeLa; format: cell-based; conditions: Homo sapiens, 24 h, one day after compound addition
Protocol: as §1

[3] = system: U87 glioblastoma cell line; test: In-vitro cell survival assay (Alamar blue), U87; format: cell-based; conditions: 24 h; U87, one day after compound addition
Protocol: as §1

[4] = system: LN18 glioblastoma cell line; test: In-vitro cell survival assay (Alamar blue), LN18; format: cell-based; conditions: Homo sapiens, LN-18, 24 h; LN18, one day after compound addition
Protocol: as §1

ROS = ROS (Homo sapiens, UniProt P08922); test: In vitro ROS enzymatic reaction assay (HTRF, Cisbio); format: biochemical; parameters: ROS or EGFR enzyme, 0.008 ng/ul; conditions: for inhibition at 5 µM / Kinase Inhib. 5 uM (%) / inhibition at 10 µM / Kinase Inhib. 10 uM (%): ROS kinase; for inhibition at 5 µM / Kinase Inhib. 5 uM (%): compound at 5 uM; for inhibition at 5 µM: read-out: Kinase Inhib. 5 uM (%); for inhibition at 10 µM / Kinase Inhib. 10 uM (%): compound at 10 uM; for inhibition at 10 µM: read-out: Kinase Inhib. 10 uM (%)
Protocol: The ROS enzymatic reactions were carried out with a high throughput screening platform for phosphor-detection of kinase activity. This platform based on homogeneous time resolved fluorescence (HTRF) technology from Cisbio Bioassays, Inc. (Cisbio). […] The reaction was allowed to proceed for 30 minutes at room temperature. An equal volume of detection buffer was then added to the reaction mix.

ROS, sequence (P08922 28-2347): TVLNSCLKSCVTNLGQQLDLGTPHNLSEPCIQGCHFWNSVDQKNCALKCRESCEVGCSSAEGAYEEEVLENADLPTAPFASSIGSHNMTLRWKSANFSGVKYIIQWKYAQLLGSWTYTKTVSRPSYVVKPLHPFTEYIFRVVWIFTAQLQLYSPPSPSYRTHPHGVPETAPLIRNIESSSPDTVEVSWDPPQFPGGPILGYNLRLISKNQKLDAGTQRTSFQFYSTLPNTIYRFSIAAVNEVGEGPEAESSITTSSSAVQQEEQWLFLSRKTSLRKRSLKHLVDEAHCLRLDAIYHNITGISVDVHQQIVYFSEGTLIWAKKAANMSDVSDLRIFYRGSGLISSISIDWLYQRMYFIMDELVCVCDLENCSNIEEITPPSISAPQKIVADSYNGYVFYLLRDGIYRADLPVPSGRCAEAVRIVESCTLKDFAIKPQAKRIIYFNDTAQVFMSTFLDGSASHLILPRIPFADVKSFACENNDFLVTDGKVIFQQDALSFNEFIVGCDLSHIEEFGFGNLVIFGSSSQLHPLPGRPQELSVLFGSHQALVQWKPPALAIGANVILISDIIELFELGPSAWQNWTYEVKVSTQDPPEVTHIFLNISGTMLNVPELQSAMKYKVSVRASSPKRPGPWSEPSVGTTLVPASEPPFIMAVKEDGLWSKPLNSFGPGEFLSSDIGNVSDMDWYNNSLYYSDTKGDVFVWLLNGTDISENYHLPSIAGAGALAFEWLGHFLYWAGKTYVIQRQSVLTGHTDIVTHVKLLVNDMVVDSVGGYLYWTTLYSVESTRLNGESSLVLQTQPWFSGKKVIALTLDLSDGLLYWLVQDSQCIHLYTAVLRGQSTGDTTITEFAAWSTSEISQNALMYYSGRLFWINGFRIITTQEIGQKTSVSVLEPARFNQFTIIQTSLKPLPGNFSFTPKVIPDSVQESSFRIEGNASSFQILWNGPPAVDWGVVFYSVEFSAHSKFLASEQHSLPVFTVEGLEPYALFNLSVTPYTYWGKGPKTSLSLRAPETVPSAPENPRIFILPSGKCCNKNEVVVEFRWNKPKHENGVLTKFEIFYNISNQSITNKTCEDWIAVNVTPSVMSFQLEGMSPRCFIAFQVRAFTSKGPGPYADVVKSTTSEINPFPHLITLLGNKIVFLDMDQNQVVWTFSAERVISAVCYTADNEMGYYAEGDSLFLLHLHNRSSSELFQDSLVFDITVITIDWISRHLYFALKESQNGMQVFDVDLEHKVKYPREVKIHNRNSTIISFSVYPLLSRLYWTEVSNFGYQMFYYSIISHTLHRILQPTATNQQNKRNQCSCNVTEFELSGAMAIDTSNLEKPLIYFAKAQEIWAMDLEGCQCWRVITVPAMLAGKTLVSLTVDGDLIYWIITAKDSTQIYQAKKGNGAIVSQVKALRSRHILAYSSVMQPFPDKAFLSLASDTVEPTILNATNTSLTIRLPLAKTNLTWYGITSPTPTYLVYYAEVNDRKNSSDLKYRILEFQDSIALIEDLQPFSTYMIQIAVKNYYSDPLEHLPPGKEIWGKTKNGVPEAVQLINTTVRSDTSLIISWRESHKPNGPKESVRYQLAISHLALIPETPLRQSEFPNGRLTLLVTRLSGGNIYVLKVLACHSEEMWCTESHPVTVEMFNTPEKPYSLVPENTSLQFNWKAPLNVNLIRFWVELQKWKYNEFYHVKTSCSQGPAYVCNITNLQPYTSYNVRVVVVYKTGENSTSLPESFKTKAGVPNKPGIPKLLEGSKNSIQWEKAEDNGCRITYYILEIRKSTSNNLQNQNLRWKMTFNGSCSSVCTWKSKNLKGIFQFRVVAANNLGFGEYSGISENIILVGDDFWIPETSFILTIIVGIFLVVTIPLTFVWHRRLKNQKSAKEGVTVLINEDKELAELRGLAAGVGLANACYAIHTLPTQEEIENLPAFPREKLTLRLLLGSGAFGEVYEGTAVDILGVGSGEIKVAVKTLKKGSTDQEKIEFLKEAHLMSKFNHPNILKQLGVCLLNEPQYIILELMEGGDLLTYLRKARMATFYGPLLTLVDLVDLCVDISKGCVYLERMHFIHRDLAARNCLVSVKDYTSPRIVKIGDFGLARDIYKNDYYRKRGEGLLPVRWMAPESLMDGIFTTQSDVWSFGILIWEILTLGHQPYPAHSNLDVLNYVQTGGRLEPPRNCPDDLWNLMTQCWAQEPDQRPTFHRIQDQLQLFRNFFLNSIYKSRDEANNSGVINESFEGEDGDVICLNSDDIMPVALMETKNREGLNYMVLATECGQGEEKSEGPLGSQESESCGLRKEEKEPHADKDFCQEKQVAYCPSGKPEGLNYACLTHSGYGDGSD

Row | Compound | EC50 [2] | EC50 [4] | inhibition at 5 µM (ROS) | IC50 (ROS) | other results
1 | c1cc(Nc2nccc(Nc3ccc4ncsc4c3)n2)cc(C2CCNCC2)c1 [drawing 440] | 15 µM | 18 µM | – | – | EC50 [1]: 25 µM; EC50 [3]: 35 µM
2 | O=C1NN=C(c2ccccc2)/C1=C/Nc1ccccc1 [drawing 368] | > 100 µM | > 100 µM | – | – | –
3 | CN1CCN(C(=O)c2ccc(Nc3ncc(Cl)c(Nc4ccc5ncsc5c4)n3)cc2)CC1 [drawing 444] | 12 µM | 22 µM | – | – | EC50 [1]: 28 µM; EC50 [3]: 15 µM
4 | Brc1cccc(Nc2nccc(Nc3ccc4ncsc4c3)n2)c1 [drawing 442] | > 100 µM | > 100 µM | – | – | EC50 [1]: > 100 µM; EC50 [3]: > 100 µM
5 | NCC1CCN(C(=O)c2cccc(Nc3ncc(Cl)c(Nc4ccc5ncsc5c4)n3)c2)CC1 [drawing 470] | 3 µM | 19 µM | – | – | EC50 [1]: 20 µM; EC50 [3]: 18 µM
6 | O=C(O)c1cccc(Nc2ncc(Cl)c(Nc3ccc4ncsc4c3)n2)c1 [drawing 462] | 15 µM | 40 µM | – | – | EC50 [1]: 100 µM; EC50 [3]: > 100 µM
7 | O=C(c1cccc(Nc2ncc(Cl)c(Nc3ccc4ncsc4c3)n2)c1)N1CCCCC1 [drawing 465] | 7 µM | 14 µM | – | – | EC50 [1]: 15.3 µM; EC50 [3]: 12 µM
8 | CC(C)c1nc(Nc2ccc(C(=O)NCc3ccccc3)cc2)nc(Nc2cccc(Cc3nc4ccccc4s3)c2)n1 [drawing 453] | > 100 µM | > 100 µM | – | – | EC50 [1]: > 100 µM; EC50 [3]: > 100 µM
9 | NCC1CCN(C(=O)c2ccc(Nc3ncc(Cl)c(Nc4ccc5ncsc5c4)n3)cc2)CC1 [drawing 463] | 70 µM | 100 µM | – | – | EC50 [1]: 80 µM; EC50 [3]: > 100 µM
10 | CC(C)c1nc(Nc2ccc(C(=O)N3CCN(C)CC3)cc2)nc(Nc2ccc3ncsc3c2)n1 [drawing 458] | 30 µM | 40 µM | – | – | EC50 [1]: 28 µM; EC50 [3]: 35 µM
11 | CC(C)c1nc(Nc2ccc(C(=O)NCC3CCCCC3)cc2)nc(Nc2cccc(Cc3nc4ccccc4s3)c2)n1 [drawing 454] | > 100 µM | > 100 µM | – | – | EC50 [1]: > 100 µM; EC50 [3]: > 100 µM
12 | CC(C)c1nc(Nc2ccc(C(=O)N3CCCCC3)cc2)nc(Nc2ccc3ncsc3c2)n1 [drawing 455] | 30 µM | 30 µM | – | – | EC50 [1]: 18 µM; EC50 [3]: 40 µM
13 | O=C(O)c1ccc(Nc2ncc(Cl)c(Nc3ccc4ncsc4c3)n2)cc1 [drawing 445] | 5 µM | 18 µM | – | – | EC50 [1]: 100 µM; EC50 [3]: > 100 µM
14 | COc1ccc(C2=CCNCC2)cc1Nc1nccc(Nc2ccc3ncsc3c2)n1 [drawing 467] | 15 µM | 15 µM | – | – | EC50 [1]: 6.9 µM; EC50 [3]: 18 µM
15 | COc1ccc(N/C=C2\C(=O)NN=C2c2ccccc2)cc1 [drawing 369] | 100 µM | 78 µM | – | – | –
16 | O=C(NCC1CCNCC1)c1cccc(Nc2ncc(Cl)c(Nc3ccc4ncsc4c3)n2)c1 [drawing 471] | 30 µM | 30 µM | – | – | EC50 [1]: 80 µM; EC50 [3]: 80 µM
17 | NC1CCN(C(=O)c2cccc(Nc3ncc(Cl)c(Nc4ccc5ncsc5c4)n3)c2)CC1 [drawing 469] | 20 µM | 40 µM | – | – | EC50 [1]: 25 µM; EC50 [3]: 35 µM
18 | CC(C)c1nc(Nc2ccc(C(=O)N3CCCC3)cc2)nc(Nc2ccc3ncsc3c2)n1 [drawing 457] | 4 µM | 20 µM | – | – | EC50 [1]: 22 µM; EC50 [3]: 30 µM
19 | C[C@H](O)CN(C[C@H](C)O)C(=O)c1cccc(Nc2nccc(Nc3ccc4ncsc4c3)n2)c1 [drawing 283] | – | – | 101% | – | –

Row | Compound | EC50 [2] | EC50 [4] | inhibition at 5 µM (ROS) | IC50 (ROS) | other results
20 | FC(F)(F)c1cc(-n2c(Cc3cccc4ccccc34)n[nH]c2=S)cc(C(F)(F)F)c1 [drawing 260] | – | – | – | – | Kinase Inhib. 5 uM (%) (ROS): 28.49%
21 | Cc1cccc(Nc2nccc(Nc3cccc(C(=O)Nc4ccc(F)cc4)c3)n2)c1 [drawing 245] | – | – | 47.3% | – | –
22 | Nc1nc(Nc2ccc(C(=O)N3CCCCCC3)cc2)cc(Nc2ccc3ncsc3c2)n1 [drawing 272] | – | – | – | – | Kinase Inhib. 5 uM (%) (ROS): 22.67%
23 | Nc1nc(Nc2ccc(C(=O)NCc3ccco3)cc2)cc(Nc2ccc3ncsc3c2)n1 [drawing 238] | – | – | 49% | 3.81 µM | –
24 | COc1ccccc1[C@@H]1C(C#N)=C(N)Oc2n[nH]c(C(F)(F)F)c21 | – | – | – | 1.7 µM | inhibition at 10 µM (ROS): 61.6%
25 | O=C(NNc1nc2ccccc2nc1Cc1ccccc1)c1cccc(Cl)c1 [drawing 229] | – | – | – | – | inhibition at 10 µM (ROS): 24.3%
26 | Cc1ccc(NC=C2C(=O)NN=C2c2ccccc2)cc1 [drawing 370] | > 100 µM | 52 µM | – | – | –
27 | CN1CCN(C(=O)c2cccc(Nc3nccc(Nc4ccc5ncsc5c4)n3)c2)CC1 [drawing 278] | – | – | 99.4% | 0.14 µM | –
28 | CN(C)CC(C)(C)CNC(=O)c1cccc(Nc2nccc(Nc3ccc4ncsc4c3)n2)c1 [drawing 276] | – | – | 101% | 0.271 µM | –
29 | COc1ccc(C(NC(=O)c2n[nH]c(-c3ccccc3)c2C)c2ccncc2)cc1 (stereo not shown) | – | – | – | – | Kinase Inhib. 5 uM (%) (ROS): 31.08%
30 | O=C(c1cccc(Nc2nccc(Nc3ccc4ncsc4c3)n2)c1)N1CCCCC1 [drawing 301] | – | – | 100% | 0.392 µM | –
31 | CCC(C)(C)NC(=O)c1cccc(Nc2nccc(Nc3ccc4ncsc4c3)n2)c1 [drawing 243] | – | – | 101% | 0.62 µM | –
32 | O=C(NCc1ccc(F)cc1)c1cccc(Nc2nccc(Nc3ccc4ncsc4c3)n2)c1 [drawing 286] | – | – | 101% | 0.582 µM | –
33 | Cc1ccc(CNC(=O)c2cccc(Nc3nccc(Nc4ccc5ncsc5c4)n3)c2)o1 [drawing 282] | – | – | 99.1% | 0.196 µM | –
34 | O=C(c1cccc(-c2noc(-c3n[nH]c4c3CCCC4)n2)c1)N1CCCCC1 [drawing 248] | – | – | – | 4.1 µM | inhibition at 10 µM (ROS): 39.5%
35 | CC(C)c1nc(Nc2ccc(C(=O)N3CCCCC3)cc2)nc(Nc2ccc3ncsc3c2)n1 [drawing 318] | – | – | 58.6% | > 5 µM | –
36 | NC(=O)c1c(NC(=O)Nc2ccccc2)sc2c1CCCC2 [drawing 264] | – | – | 37.1% | – | –
37 | CC(C)c1nc(Nc2ccc(C(=O)NCc3ccccc3)cc2)nc(Nc2cccc(Cc3nc4ccccc4s3)c2)n1 [drawing 316] | – | – | 45.1% | > 5 µM | –
38 | O=C(NCC(c1cccs1)S(=O)(=O)c1ccc(F)cc1)c1ccccc1 (stereo not shown) [drawing 297] | – | – | 85.1% | 0.48 µM | –

Row | Compound | EC50 [2] | EC50 [4] | inhibition at 5 µM (ROS) | IC50 (ROS) | other results
39 | Cc1cccc(Nc2nccc(Nc3cccc(C(=O)NC4CCN(C)CC4)c3)n2)c1 [drawing 285] | – | – | 98.6% | 1.42 µM | –
40 | CC(C)c1nc(Nc2ccc3ncsc3c2)nc(NC2CCCCC2)n1 | – | – | – | 1.5 µM | –
41 | CCN(CCO)c1nc(Nc2ccc(F)cc2)c2cnn(-c3ccccc3)c2n1 [drawing 249] | – | – | – | 16.9 µM | Kinase Inhib. 10 uM (%) (ROS): 38.92%
42 | O=C1NN=C(c2ccccc2)/C1=C/Nc1ccccc1 [drawing 231] | – | – | 30.6% | – | –
43 | CC(C)c1nc(Nc2ccc(C(=O)NCC3CCCCC3)cc2)nc(Nc2cccc(Cc3nc4ccccc4s3)c2)n1 [drawing 317] | – | – | 25.3% | > 5 µM | –
44 | O=c1c(O)c(-c2ccc(O)c(O)c2)oc2cc(O)cc(O)c12 [drawing 269] | – | – | 99.6% | 0.05 µM | inhibition at 10 µM (ROS): 98.2%
45 | CC(C)c1nc(Nc2ccc(Br)cc2)nc(Nc2ccc3ncsc3c2)n1 | – | – | – | 0.84 µM | –
46 | NS(=O)(=O)c1ccc(CCNC(=O)c2cc(-c3cccs3)nc3ccccc23)cc1 [drawing 221] | – | – | – | – | inhibition at 10 µM (ROS): 21.5%
47 | CCN(CC)CCNC(=O)c1cccc(Nc2nccc(Nc3ccc4ncsc4c3)n2)c1 [drawing 236] | – | – | 102% | – | –
48 | Cc1cccc(Nc2nccc(Nc3cccc(C(=O)NCCCN4CCOCC4)c3)n2)c1 [drawing 279] | – | – | 92.9% | – | –
49 | O=C(COc1ccccc1)NCC(c1cccs1)S(=O)(=O)c1ccc(Cl)cc1 (stereo not shown) [drawing 290] | – | – | 83.8% | 1.78 µM | inhibition at 10 µM (ROS): 102%
50 | Cc1ccc(Cn2c(NCc3nc4ccccc4n3C)nc3ccccc32)cc1 [drawing 218] | – | – | – | – | inhibition at 10 µM (ROS): 20.2%
51 | CC(C)c1nc(Nc2ccc3ncsc3c2)nc(N2CCCC2)n1 [drawing 314] | – | – | 20.9% | > 5 µM | –
52 | O=C(NCCc1ccccc1)c1cccc(Nc2nccc(Nc3ccc4ncsc4c3)n2)c1 [drawing 281] | – | – | – | – | Kinase Inhib. 5 uM (%) (ROS): 94.23%
53 | COc1ccc(NC(=O)CC2=Nc3cccc4cccc(c34)NC2=O)cc1 [drawing 345] | – | – | – | – | inhibition at 10 µM (ROS): 26.5%
54 | CCOC(Nc1cc(-c2sccc2-n2c(C)ccc2C)[nH]n1)OCC [drawing 227] | – | – | – | – | Kinase Inhib. 10 uM (%) (ROS): 27.57%
55 | Cc1ccc(NC=C2C(=O)NN=C2c2ccccc2)cc1 [drawing 233] | – | – | 43.7% | – | –
56 | CC(C)c1nc(NCc2ccccc2)nc(Nc2ccc3ncsc3c2)n1 | – | – | – | 0.358 µM | –
